The values below come from patent publication US11919901B2 (Syndax Pharmaceuticals, Inc., priority 2021, dated 2024).

The target of data set [1] is hERG (Homo sapiens (Human), UniProt Q12809). In words: Patch clamp assay (hERG tail currents, whole-cell). It counts as cell-based. The note with it: hERG transfected HEK 293 cells; for hERG % Remaining 10 μM: 10 μM compound; for hERG % Remaining 30 μM: 30 μM compound.
The target of data set [2] is Menin-MLL (Homo sapiens (Human), UniProt O00255). Put plainly: Determination of binding constants (Ki) to Menin-MLL (HTRF). To be noted: HTRF, 0.25 nM H-FL-Menin, 3.2 nM FITC-MLL-4-43, 24 hr incubation; for Ki: read-out: Menin-MLL Ki HTRF Assay: Ki.
Sequence of Menin-MLL (O00255 whole entry): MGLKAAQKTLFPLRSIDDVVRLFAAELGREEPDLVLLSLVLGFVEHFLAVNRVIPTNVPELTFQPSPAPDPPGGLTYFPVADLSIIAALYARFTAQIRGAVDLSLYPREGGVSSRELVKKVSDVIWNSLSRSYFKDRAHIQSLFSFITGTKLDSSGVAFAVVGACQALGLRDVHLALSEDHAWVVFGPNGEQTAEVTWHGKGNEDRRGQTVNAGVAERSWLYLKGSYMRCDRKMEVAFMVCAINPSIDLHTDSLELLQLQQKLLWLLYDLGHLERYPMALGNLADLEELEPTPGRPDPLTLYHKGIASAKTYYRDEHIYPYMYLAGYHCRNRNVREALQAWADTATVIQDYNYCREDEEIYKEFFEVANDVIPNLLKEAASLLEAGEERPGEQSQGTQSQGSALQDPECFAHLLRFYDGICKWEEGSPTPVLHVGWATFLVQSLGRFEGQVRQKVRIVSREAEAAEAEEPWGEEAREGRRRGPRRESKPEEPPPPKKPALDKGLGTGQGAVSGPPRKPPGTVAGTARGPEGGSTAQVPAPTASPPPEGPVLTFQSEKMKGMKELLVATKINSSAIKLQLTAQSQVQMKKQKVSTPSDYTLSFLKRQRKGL

Sequence of hERG (Q12809 whole entry): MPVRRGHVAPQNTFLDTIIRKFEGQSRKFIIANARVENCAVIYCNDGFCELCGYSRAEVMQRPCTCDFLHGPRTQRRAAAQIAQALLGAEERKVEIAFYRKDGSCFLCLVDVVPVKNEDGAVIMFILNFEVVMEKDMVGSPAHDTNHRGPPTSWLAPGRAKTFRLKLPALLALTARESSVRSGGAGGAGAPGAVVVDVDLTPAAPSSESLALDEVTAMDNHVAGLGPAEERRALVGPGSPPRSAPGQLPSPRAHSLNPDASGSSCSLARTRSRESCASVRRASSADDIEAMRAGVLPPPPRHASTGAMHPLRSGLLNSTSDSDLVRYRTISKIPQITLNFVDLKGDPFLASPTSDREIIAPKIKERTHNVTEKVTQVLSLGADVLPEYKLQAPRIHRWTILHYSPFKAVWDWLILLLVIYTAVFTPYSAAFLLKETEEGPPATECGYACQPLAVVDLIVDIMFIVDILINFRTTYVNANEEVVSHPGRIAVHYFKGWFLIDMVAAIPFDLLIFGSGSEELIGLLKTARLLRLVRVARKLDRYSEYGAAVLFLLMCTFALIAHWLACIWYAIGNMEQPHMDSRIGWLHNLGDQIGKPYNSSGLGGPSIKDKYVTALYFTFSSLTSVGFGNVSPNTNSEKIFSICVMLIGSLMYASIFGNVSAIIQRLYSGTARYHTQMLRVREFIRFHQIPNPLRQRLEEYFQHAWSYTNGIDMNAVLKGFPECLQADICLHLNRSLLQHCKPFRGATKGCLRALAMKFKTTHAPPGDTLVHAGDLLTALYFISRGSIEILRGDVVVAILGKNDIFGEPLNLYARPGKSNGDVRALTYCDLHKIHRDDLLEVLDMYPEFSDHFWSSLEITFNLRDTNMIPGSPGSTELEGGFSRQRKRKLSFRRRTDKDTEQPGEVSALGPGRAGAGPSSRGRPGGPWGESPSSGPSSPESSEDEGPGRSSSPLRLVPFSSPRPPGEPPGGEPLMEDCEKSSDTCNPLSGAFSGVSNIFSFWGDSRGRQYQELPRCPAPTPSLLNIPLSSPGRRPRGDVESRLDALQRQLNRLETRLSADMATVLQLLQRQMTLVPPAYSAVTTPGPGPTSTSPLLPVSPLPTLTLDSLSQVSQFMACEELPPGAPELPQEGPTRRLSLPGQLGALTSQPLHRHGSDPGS

`CC(C)N(C(=O)c1cc(F)ccc1Oc1cncnc1N1CC2(CCN(C[C@@H]3CC[C@@H](NS(=O)(=O)C4COC4)CO3)CC2)C1)C(C)C` [Compound 16, 5-fluoro-N,N-diisopropyl-2-((4-(7-(((2S,5R)-5-(oxetane-3-sulfonamido)tetrahydro-2H-pyran-2-yl)methyl)-2,7-diazaspiro[3.5]nonan-2-yl)pyrimidin-5-yl)oxy)benzamide]: in data set [1], the “hERG % Remaining 10 μM” value is on record as “+++ (“+++” means ≥66%)” and the “hERG % Remaining 30 μM” value is given as “+++ (“+++” means ≥66%)”. Also, in data set [2], the EC50 was less than 50 nM and the Ki is less than 1 nM.
Consider `CCS(=O)(=O)N[C@@H]1CC[C@@H](CN2CCC3(CC2)CN(c2ncncc2Oc2ccc(F)cc2C(=O)N(C(C)C)C2CC2)C3)OC1` [Compound 19, N-cyclopropyl-2-((4-(7-(((2S,5R)-5-(ethylsulfonamido)tetrahydro-2H-pyran-2-yl)methyl)-2,7-diazaspiro[3.5]nonan-2-yl)pyrimidin-5-yl)oxy)-5-fluoro-N-isopropylbenzamide], for which, in data set [1], the “hERG % Remaining 10 μM” value is “+++ (“+++” means ≥66%)”; the “hERG % Remaining 30 μM” value is “++ (“++” means ≥33% and <66%)”. For the same molecule, in data set [2], the EC50 is less than 50 nM and the Ki was less than 1 nM.
On to `CC(C)N(C(=O)c1cc(F)ccc1Oc1cncnc1N1CC2(CCN(C[C@@H]3CC[C@@H](NS(=O)(=O)C4CC4)CO3)CC2)C1)C1CC1` [Compound 21, 2-((4-(7-(((2S,5R)-5-(cyclopropanesulfonamido)tetrahydro-2H-pyran-2-yl)methyl)-2,7-diazaspiro[3.5]nonan-2-yl)pyrimidin-5-yl)oxy)-N-cyclopropyl-5-fluoro-N-isopropylbenzamide], for which, in data set [1], the “hERG % Remaining 10 μM” value was “++ (“++” means ≥33% and <66%)”; the “hERG % Remaining 30 μM” value is recorded as “+ (“+” means <33%)”. Besides, in data set [2], the EC50 is less than 50 nM and the Ki is less than 1 nM.
`CCS(=O)(=O)N[C@@H]1CC[C@@H](CN2CCC3(CC2)CN(c2ncncc2Oc2ccc(F)cc2C(=O)N(C(C)C)[C@H]2CCOC2)C3)OC1` [Compound 33, 2-((4-(7-(((2S,5R)-5-(ethylsulfonamido)tetrahydro-2H-pyran-2-yl)methyl)-2,7-diazaspiro[3.5]nonan-2-yl)pyrimidin-5-yl)oxy)-5-fluoro-N-isopropyl-N-((S)-tetrahydrofuran-3-yl)benzamide]: in data set [1], the “hERG % Remaining 10 μM” value was “+++ (“+++” means ≥66%)” and the “hERG % Remaining 30 μM” value was “+++ (“+++” means ≥66%)”. Further, in data set [2], the EC50 is less than 50 nM and the Ki is less than 1 nM.
Take `CCS(=O)(=O)N[C@@H]1CC[C@@H](CN2CCC3(CC2)CN(c2ncncc2Oc2ccc(F)cc2C(=O)N(CC(F)F)C(C)C)C3)OC1` [Compound 34, N-(2,2-difluoroethyl)-2-((4-(7-(((2S,5R)-5-(ethylsulfonamido)tetrahydro-2H-pyran-2-yl)methyl)-2,7-diazaspiro[3.5]nonan-2-yl)pyrimidin-5-yl)oxy)-5-fluoro-N-isopropylbenzamide]: the “hERG % Remaining 1 μM” value in data set [1] (1 μM compound) is given as “+++ (“+++” means ≥66%)”. Also, the “hERG % Remaining 3 μM” value in data set [1] (3 μM compound) is “+++ (“+++” means ≥66%)”. Moreover, in data set [1], the “hERG % Remaining 10 μM” value is reported as “+++ (“+++” means ≥66%)”; the “hERG % Remaining 30 μM” value is “++ (“++” means ≥33% and <66%)”; the IC50 was in the range of 25000 to 50000 nM. The “hERG % Remaining 100 μM” value in data set [1] (100 μM compound) was “+ (“+” means <33%)”. For the same molecule, in data set [2], the EC50 is less than 50 nM and the Ki is less than 1 nM.
Regarding `CCN(C(=O)c1cc(F)ccc1Oc1cncnc1N1CC2(CCN(C[C@@H]3CC[C@@H](NC(=O)NCC(F)(F)F)CO3)CC2)C1)C(C)C` [Compound 37, N-ethyl-5-fluoro-N-isopropyl-2-((4-(7-(((2S,5R)-5-(3-(2,2,2-trifluoroethyl)ureido)tetrahydro-2H-pyran-2-yl)methyl)-2,7-diazaspiro[3.5]nonan-2-yl)pyrimidin-5-yl)oxy)benzamide], in data set [1], the “hERG % Remaining 10 μM” value is “+ (“+” means <33%)” and the “hERG % Remaining 30 μM” value is “+ (“+” means <33%)”. In addition, in data set [2], the EC50 was less than 50 nM and the inhibition constant (Ki) was less than 1 nM.
On to `CCS(=O)(=O)N[C@@H]1CC[C@@H](CN2CCC3(CC2)CN(c2ncncc2Oc2ccc(F)cc2C(=O)N(CCC#N)C(C)C)C3)OC1` [Compound 43, N-(2-cyanoethyl)-2-((4-(7-(((2S,5R)-5-(ethylsulfonamido)tetrahydro-2H-pyran-2-yl)methyl)-2,7-diazaspiro[3.5]nonan-2-yl)pyrimidin-5-yl)oxy)-5-fluoro-N-isopropylbenzamide], for which, in data set [1], the “hERG % Remaining 10 μM” value is “+++ (“+++” means ≥66%)”; the “hERG % Remaining 30 μM” value was “++ (“++” means ≥33% and <66%)”. In data set [2], the EC50 was less than 50 nM and the Ki is less than 1 nM.
Regarding `CCS(=O)(=O)N[C@@H]1CC[C@@H](CN2CCC3(CC2)CN(c2ncncc2Oc2ccc(F)cc2C(=O)N(C(C)C)C2CC(F)(F)C2)C3)OC1` [Compound 44, N-(3,3-difluorocyclobutyl)-2-((4-(7-(((2S,5R)-5-(ethylsulfonamido)tetrahydro-2H-pyran-2-yl)methyl)-2,7-diazaspiro[3.5]nonan-2-yl)pyrimidin-5-yl)oxy)-5-fluoro-N-isopropylbenzamide], in data set [1], the “hERG % Remaining 10 μM” value is “+++ (“+++” means ≥66%)”; the “hERG % Remaining 30 μM” value is “++ (“++” means ≥33% and <66%)”. In data set [2], the 50% effective concentration (EC50) is less than 50 nM and the Ki was less than 1 nM.
Turning to `CCN(C(=O)c1cc(F)ccc1Oc1cncnc1N1CC2(CCN(C[C@@H]3CC[C@@H](NS(=O)(=O)c4ccccc4)CO3)CC2)C1)C(C)C` [Compound 45, N-ethyl-5-fluoro-N-isopropyl-2-((4-(7-(((2S,5R)-5-(phenylsulfonamido)tetrahydro-2H-pyran-2-yl)methyl)-2,7-diazaspiro[3.5]nonan-2-yl)pyrimidin-5-yl)oxy)benzamide], in data set [1], the “hERG % Remaining 10 μM” value is “++ (“++” means ≥33% and <66%)”; the “hERG % Remaining 30 μM” value is listed as “+ (“+” means <33%)”. In data set [2], the EC50 was less than 50 nM and the Ki is less than 1 nM.
Turning to `CC(C)N(CC(F)F)C(=O)c1cc(F)ccc1Oc1cncnc1N1CC2(CCN(C[C@@H]3CC[C@@H](NS(=O)(=O)C4CC4)CO3)CC2)C1` [Compound 47, 2-((4-(7-(((2S,5R)-5-(cyclopropanesulfonamido)tetrahydro-2H-pyran-2-yl)methyl)-2,7-diazaspiro[3.5]nonan-2-yl)pyrimidin-5-yl)oxy)-N-(2,2-difluoroethyl)-5-fluoro-N-isopropylbenzamide], in data set [1], the “hERG % Remaining 10 μM” value is “+++ (“+++” means ≥66%)”; the “hERG % Remaining 30 μM” value was “++ (“++” means ≥33% and <66%)”. In data set [2], the EC50 is less than 50 nM and the Ki was less than 1 nM.
`CCN(C(=O)c1cc(F)ccc1Oc1cncnc1N1CC2(CCN(C[C@@H]3CC[C@@H](NS(=O)(=O)N(C)C)CO3)CC2)C1)C(C)C` [Compound 49, 2-((4-(7-(((2S,5R)-5-((N,N-dimethylsulfamoyl)amino)tetrahydro-2H-pyran-2-yl)methyl)-2,7-diazaspiro[3.5]nonan-2-yl)pyrimidin-5-yl)oxy)-N-ethyl-5-fluoro-N-isopropylbenzamide]: in data set [1], the “hERG % Remaining 10 μM” value is recorded as “+++ (“+++” means ≥66%)”, the “hERG % Remaining 30 μM” value is recorded as “+++ (“+++” means ≥66%)” and the IC50 is no less than 50000 nM. In data set [2], the EC50 was less than 50 nM and the Ki was less than 1 nM.
On to `CCN(C(=O)c1cc(F)ccc1Oc1cncnc1N1CC2(CCN(C[C@@H]3CC[C@@H](NS(=O)(=O)c4ccccn4)CO3)CC2)C1)C(C)C` [Compound 58, N-ethyl-5-fluoro-N-isopropyl-2-((4-(7-(((2S,5R)-5-(pyridine-2-sulfonamido)tetrahydro-2H-pyran-2-yl)methyl)-2,7-diazaspiro[3.5]nonan-2-yl)pyrimidin-5-yl)oxy)benzamide], for which, in data set [1], the “hERG % Remaining 10 μM” value is recorded as “+++ (“+++” means ≥66%)”; the “hERG % Remaining 30 μM” value is “++ (“++” means ≥33% and <66%)”. Further, in data set [2], the EC50 is less than 50 nM and the Ki is less than 1 nM.
Turning to `CCN(C(=O)c1cc(F)ccc1Oc1cncnc1N1CC2(CCN(C[C@@H]3CC[C@@H](NS(=O)(=O)c4ccccc4Cl)CO3)CC2)C1)C(C)C` [Compound 59, 2-((4-(7-(((2S,5R)-5-((2-Chlorophenyl)sulfonamido)tetrahydro-2H-pyran-2-yl)methyl)-2,7-diazaspiro[3.5]nonan-2-yl)pyrimidin-5-yl)oxy)-N-ethyl-5-fluoro-N-isopropylbenzamide], in data set [1], the “hERG % Remaining 10 μM” value is reported as “+ (“+” means <33%)” and the “hERG % Remaining 30 μM” value is listed as “+ (“+” means <33%)”. For the same molecule, in data set [2], the EC50 is less than 50 nM and the Ki was less than 1 nM.
As for `CCN(C(=O)c1cc(F)ccc1Oc1cncnc1N1CC2(CCN(C[C@@H]3CC[C@@H](NS(=O)(=O)c4ccc(OC)cc4)CO3)CC2)C1)C(C)C` [Compound 62, N-Ethyl-5-fluoro-N-isopropyl-2-((4-(7-(((2S,5R)-5-((4-methoxyphenyl)sulfonamido)tetrahydro-2H-pyran-2-yl)methyl)-2,7-diazaspiro[3.5]nonan-2-yl)pyrimidin-5-yl)oxy)benzamide], in data set [1], the “hERG % Remaining 10 μM” value is recorded as “+ (“+” means <33%)” and the “hERG % Remaining 30 μM” value is listed as “+ (“+” means <33%)”. Also, in data set [2], the EC50 was less than 50 nM and the Ki was less than 1 nM.
Consider `CCN(C(=O)c1cc(F)ccc1Oc1cncnc1N1CC2(CCN(C[C@@H]3CC[C@@H](NS(=O)(=O)c4cccnc4)CO3)CC2)C1)C(C)C` [Compound 63, N-Ethyl-5-fluoro-N-isopropyl-2-((4-(7-(((2S,5R)-5-(pyridine-3-sulfonamido)tetrahydro-2H-pyran-2-yl)methyl)-2,7-diazaspiro[3.5]nonan-2-yl)pyrimidin-5-yl)oxy)benzamide], for which, in data set [1], the “hERG % Remaining 10 μM” value is “+++ (“+++” means ≥66%)”; the “hERG % Remaining 30 μM” value was “++ (“++” means ≥33% and <66%)”. In addition, in data set [2], the EC50 is less than 50 nM and the Ki is less than 1 nM.
